The source of these data is PubChem BioAssay (NCI).

Test systems include SF-295 CNS; SW-620 colon; RPMI-8226 leukemia; ACHN renal; TK-10 renal; SR leukemia; HCT-116 colon; OVCAR-5 ovarian; UACC-62 melanoma; MOLT-4 leukemia.
Common to all, as to experiment: growth of human tumour cells (NCI), 48 h

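Interpolation was linear, between the two tested concentrations surrounding the appropriate level; five concentrations were tested over 48 hours in 96-well plates. GI50 = concentration required for 50% inhibition of growth. At the TGI there is no net growth.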

Turning to `O=c1cc(-c2ccc(Cl)cc2)[nH]c2ncccc12`, the GI50 in the experiment with SF-295 CNS is 40.7 µM; in the experiment on HCT-116 colon it was 32.1 µM. The TGI in the experiment on SF-295 CNS was > 100 µM; in the experiment on SW-620 colon, > 100 µM; with RPMI-8226 leukemia, 95 µM; in the experiment with ACHN renal it was > 100 µM; in the experiment on TK-10 renal, > 100 µM; in the experiment on SR leukemia it was 37.5 µM. For the same compound, the TGI in the experiment with HCT-116 colon, with OVCAR-5 ovarian, in the experiment with UACC-62 melanoma and with MOLT-4 leukemia was > 100 µM each time.

With `CCOC(=O)/C(=C/c1ccc([N+](=O)[O-])cc1)C(=O)c1ccccc1`, the GI50 in the experiment on SF-295 CNS was 2.78 µM; in the experiment on SW-620 colon it was 2.14 µM; with RPMI-8226 leukemia it was 2.34 µM; in the experiment with ACHN renal, 2.03 µM; in the experiment on TK-10 renal, 2.27 µM; in the experiment on SR leukemia, 2.85 µM. The GI50 in the experiment on HCT-116 colon is 2.33 µM; in the experiment with OVCAR-5 ovarian, 2.55 µM; with UACC-62 melanoma, 1.93 µM; with MOLT-4 leukemia it was 3.01 µM. The TGI was 8.5 µM in the experiment on SF-295 CNS; 4.84 µM in the experiment with SW-620 colon; 6.07 µM in the experiment on RPMI-8226 leukemia; 4.35 µM in the experiment on ACHN renal; 6.54 µM with TK-10 renal; > 100 µM in the experiment with SR leukemia. Besides, the TGI came to 5.3 µM with HCT-116 colon, 6.93 µM in the experiment on OVCAR-5 ovarian, 4.28 µM in the experiment on UACC-62 melanoma and 9.38 µM with MOLT-4 leukemia.

As for `ClC1CCC2OOC1O2` (configuration not stated), the TGI with SF-295 CNS, with SW-620 colon, in the experiment with RPMI-8226 leukemia, with ACHN renal, in the experiment on TK-10 renal and in the experiment on SR leukemia was > 100 µM in each case. Further, the TGI with HCT-116 colon, with OVCAR-5 ovarian, in the experiment on UACC-62 melanoma and with MOLT-4 leukemia was > 100 µM each time.

For the compound `O=C1N=C(c2ccccc2)OC1C(=O)c1ccccc1` (configuration not stated), the TGI in the experiment with SF-295 CNS, with SW-620 colon, with RPMI-8226 leukemia, with ACHN renal, in the experiment with TK-10 renal and with SR leukemia was > 100 µM each time. In addition, the TGI with HCT-116 colon, in the experiment with OVCAR-5 ovarian, in the experiment on UACC-62 melanoma and in the experiment on MOLT-4 leukemia was > 100 µM throughout.

For `COc1ccc(/C=C2\CN(Cc3cn(CCCNc4ccnc5cc(Cl)ccc45)nn3)C/C(=C\c3ccc(OC)c(OC)c3)C2=O)cc1OC`, the GI50 is 2.08 µM with SF-295 CNS; 0.455 µM in the experiment with SW-620 colon; 1.46 µM in the experiment with RPMI-8226 leukemia; 1.64 µM in the experiment with ACHN renal; 2.95 µM with TK-10 renal; 0.382 µM in the experiment with SR leukemia. The GI50 is 0.577 µM with HCT-116 colon, 2.68 µM in the experiment on OVCAR-5 ovarian, 1.49 µM with UACC-62 melanoma and 1.39 µM in the experiment with MOLT-4 leukemia. Also, the TGI with SF-295 CNS came out at 4.1 µM; with SW-620 colon, 1.75 µM; with RPMI-8226 leukemia, 5.65 µM; in the experiment with ACHN renal it was 3.11 µM; in the experiment on TK-10 renal, 7.92 µM; in the experiment with SR leukemia, 12 µM. For the same compound, the TGI with HCT-116 colon worked out at 2.1 µM; with OVCAR-5 ovarian, 6.42 µM; with UACC-62 melanoma, 3.16 µM; with MOLT-4 leukemia, 6.27 µM.

In the case of `ClCc1ccc(-c2ccc(Cn3cnc4c(Cl)nc(Cl)nc43)cc2)cc1`, the GI50 with SF-295 CNS was 2.69 µM; in the experiment on SW-620 colon, 1.83 µM; in the experiment on RPMI-8226 leukemia, 2.33 µM; with ACHN renal it was 2.05 µM; in the experiment on TK-10 renal, 2.11 µM; in the experiment with SR leukemia, 1.9 µM. Also, the GI50 in the experiment on HCT-116 colon is 1.58 µM; with OVCAR-5 ovarian, 17.8 µM; in the experiment on UACC-62 melanoma it was 2.49 µM; in the experiment with MOLT-4 leukemia, 1.95 µM. The TGI in the experiment on SF-295 CNS stood at 6.5 µM; in the experiment on SW-620 colon, 3.41 µM; in the experiment with RPMI-8226 leukemia, 5.77 µM; in the experiment with ACHN renal, 4.25 µM; in the experiment on TK-10 renal, 4.42 µM; in the experiment on SR leukemia, 6.43 µM. The TGI with HCT-116 colon came out at 2.92 µM; in the experiment with OVCAR-5 ovarian it was 32.4 µM; in the experiment with UACC-62 melanoma, 6.35 µM; in the experiment on MOLT-4 leukemia it was 6.97 µM.

Regarding `COC(=O)C(C)NP(=O)(OCc1ccc(Cn2cnc3c(=O)[nH]c(N)nc32)cc1)Oc1ccccc1` (configuration not stated), the GI50 with SF-295 CNS, in the experiment on SW-620 colon, with RPMI-8226 leukemia, with ACHN renal, in the experiment with TK-10 renal and in the experiment with SR leukemia was > 100 µM each time. The GI50 in the experiment on HCT-116 colon, in the experiment with OVCAR-5 ovarian, with UACC-62 melanoma and with MOLT-4 leukemia was > 100 µM in each case. Further, the TGI in the experiment on SF-295 CNS, in the experiment with SW-620 colon, in the experiment with RPMI-8226 leukemia, in the experiment on ACHN renal, with TK-10 renal and in the experiment with SR leukemia was > 100 µM each time. In addition, the TGI with HCT-116 colon, with OVCAR-5 ovarian, in the experiment on UACC-62 melanoma and in the experiment with MOLT-4 leukemia was > 100 µM throughout.

Take `CCCc1cc2cc(-n3nc(C)c4c3CC(C)(C)CC4=O)cc(NC3CCC(O)CC3)c2c(=O)[nH]1` (configuration not stated): the GI50 in the experiment with SF-295 CNS was 0.307 µM; in the experiment with SW-620 colon it was 0.0578 µM; in the experiment with RPMI-8226 leukemia, 0.465 µM; with ACHN renal it was 0.0712 µM; with TK-10 renal, 0.0964 µM; in the experiment with SR leukemia, 0.122 µM. Further, the GI50 in the experiment with HCT-116 colon was 0.0634 µM; in the experiment on OVCAR-5 ovarian, 0.626 µM; with UACC-62 melanoma, 0.189 µM; in the experiment on MOLT-4 leukemia, 0.186 µM. The TGI with SF-295 CNS was 2.06 µM; in the experiment with SW-620 colon it was > 100 µM; in the experiment on RPMI-8226 leukemia, 14.9 µM; in the experiment on ACHN renal, > 100 µM; with TK-10 renal, > 100 µM; in the experiment with SR leukemia it was > 100 µM. The TGI was > 100 µM in the experiment on HCT-116 colon, > 100 µM in the experiment on OVCAR-5 ovarian, 5.39 µM in the experiment on UACC-62 melanoma and > 100 µM in the experiment with MOLT-4 leukemia.

In the case of `COc1ccc(-c2cc(=O)c3c(OC)c(OC)c(OC)c(OC)c3o2)cc1OC`, the TGI in the experiment with SF-295 CNS, with SW-620 colon, in the experiment on RPMI-8226 leukemia, with ACHN renal, in the experiment on TK-10 renal and with SR leukemia was > 100 µM in each case. The TGI with HCT-116 colon was > 100 µM; with OVCAR-5 ovarian, > 100 µM; in the experiment with UACC-62 melanoma, 72.4 µM; with MOLT-4 leukemia it was 70.3 µM.
